The values that follow are results of earlier work, collected in US20050118266A1, “Sustained/controlled release solid formulation as a novel drug delivery system with reduced risk of dose dumping” (priority 2002, published 2005).

The structures appear in SMILES notation.

The conditions of the series: according to Biopharmaceutics Classification System.
`Cc1cccc(Nc2ccncc2S(=O)(=O)NC(=O)NC(C)C)c1` [torasemide]: the BCS class entry is “Class I” and the “solubility (BCS category)” value is listed as “highly soluble”. Take `CNC(=C[N+](=O)[O-])NCCSCc1ccc(CN(C)C)o1` [ranitidine]: the “solubility (BCS category)” value was “highly soluble”.

Turning to `NCC1(CC(=O)O)CCCCC1` [gabapentin], the “solubility (BCS category)” value was “highly soluble”. Consider `CC[C@H](C)C(=O)O[C@H]1C[C@H](O)C=C2C=C[C@H](C)[C@H](CC[C@@H](O)C[C@@H](O)CC(=O)O)[C@H]21` [pravastatin sodium], for which the “solubility (BCS category)” value is “highly soluble”. For the molecule `O=C(O)Cc1ccccc1Nc1c(Cl)cccc1Cl` [diclofenac sodium], the BCS class result is on record as “Class II” and the “solubility (BCS category)” value is on record as “poorly soluble”.
